Data as given in a melting point compilation (Tetko et al.; mined from patent text by program, amines drawn as free bases though some values may be those of a salt).

Row | Compound | melting point [°C]
1 | COc1cc2c(cc1-c1c(C)nn(C)c1C)-c1c(-c3cccs3)c3c(n1CC2)C(=O)N(C(C)C)CCN(C(=O)OC(C)(C)C)C3 | 232 to 234
2 | C[C@@]1(C(=O)O)CSC(Cc2cc(F)cc(F)c2)=N1 | 120 to 122
3 | CC1COCc2nc3c(N)nc4c(c3n21)CCCC4 (configuration not stated) | 209 to 211
4 | O=[N+]([O-])c1cc(NCc2c(F)c(F)c(C(F)(F)F)c(F)c2F)ccc1O | 126 to 128
5 | CC(=O)NC[C@H]1CN(c2ccc(/C=C3\C(=O)N(c4ccccc4)N=C3C(C)(C)C)cc2)C(=O)O1 | 70
6 | CN1C2CCC1CC(O)(c1ccc(Cl)cc1)C2 (configuration not stated) | 186 to 187
7 | O=c1[nH]c2cc(-c3ncc[nH]3)c([N+](=O)[O-])cc2[nH]c1=O | > 300
8 | CCCCCCCCc1ccc(OCC(=O)Cn2cccc2)cc1 | 58 to 59
9 | CCCCc1c(C(=O)c2ccc(OCCCN(CCCC)CCCC)cc2)[nH]c2ccc([N+](=O)[O-])cc12 | 80
10 | Cc1cc(O)c(C(C)(C)C)cc1N | 191 to 192
11 | CC1(C)OC2OC(C3NC(=O)CC3O)C(O)C2O1 (configuration not stated) | 263 to 265
12 | Cc1c(C)c(O)c([Si](C)(C)C)c(C#C[Si](C)(C)C)c1O | 76 to 77
13 | Cc1c(C2CCC(c3ccccc3)(N(C)C)CC2)[nH]c2ccc(C#N)cc12 (configuration not stated) | 235 to 240
14 | CC(C)c1noc(-c2c(Cl)ccc(C(=O)c3cnn(C)c3O)c2Cl)n1 | 138 to 144
15 | CCOc1nc(C)ccc1C#N | 90 to 92
16 | CC(C)(C)OC(=O)C=Cc1cc2ccccc2o1 | 56 to 57
17 | CS(=O)(=O)Nc1cc2occ(C(N)=O)c(=O)c2cc1Oc1ccccc1F | 249 to 251
18 | Cc1nc(-c2ccc(NC(=O)CCCC(=O)Nc3ccc(-c4noc(C)n4)cc3)cc2)no1 | 235 to 237

Row | Compound | melting point [°C]
19 | CCCCCCCCCCN=C=S | 71 to 72
20 | O=C(c1cc2ccc(F)cc2[nH]1)C12CC3CC(CC(C3)C1)C2 | 242 to 244
21 | CC(=O)c1c(CBr)c(CBr)c(C(C)=O)c2c1C(=O)c1ccccc1C2=O | 225 to 227
22 | CN(C)S(=O)(=O)CCc1ccccc1S(N)(=O)=O | 134 to 136
23 | O=S(=O)(CCN1CCC2(CC1)OCc1ccccc12)CCN1CCC2(CC1)OCc1ccccc12 | 170 to 172
24 | CC(=O)NCCc1coc2ccc(OCC#N)cc12 | 72 to 73
25 | CCCCCCc1ccc(/C(Cl)=C/c2ccc(Br)cc2)cc1 | 52
26 | CC(C)(C)OC(=O)N1CC=C(c2ncccc2N)CC1 | 104 to 105
27 | CCCCCN(C(=O)Nc1ccc(C(=O)O)cn1)c1ccc2c(c1)C(C)(C)CCC2(C)C | 175 to 180
28 | C=CCN(CC=C)C(=O)n1cnc(S(=O)(=O)CC)n1 | 39 to 42
29 | CCOC(=O)C1=C(C)NC(N=CN(C)C)=C(C(=O)OCC)C1c1cccc([N+](=O)[O-])c1 (configuration not stated) | 150
30 | COC(=O)c1ccc(Cc2cn(C(C)C)c3ccc(C=CCC(=O)N(C)C)cc23)c(OC)c1 | 118 to 120
31 | COc1ccc(Nc2nc(NC(C)C)nc(N(C)C3CCNCC3)n2)cc1Cl | 129
32 | CCOC(=O)c1cc2n(c1)CN(CCC#N)c1ccccc1-2 | 102 to 104
33 | Cc1nc(N2CCN(CC3CC3(F)F)C2=O)sc1C(=O)NCc1ncco1 (configuration not stated) | 156 to 158
34 | Cc1nn(-c2cccnc2)cc1C(=O)O | 200 to 210
35 | CN[C@@H](C)[C@@H]1CCN(c2c(F)cc3c(=O)[nH]c(=O)n(C4CC4)c3c2C)C1 | > 250

Next, values leading:

Row | melting point [°C] | Compound
36 | 238 to 240 | COc1ccc(-c2coc3cc(O)ccc3c2=O)c(OC)c1
37 | 125 to 126 | Cc1cn(-c2ccc(NC(=O)c3ccc(C)c(C#Cc4ccc(NC5CC5)nn4)c3)cc2C(F)(F)F)cn1
38 | 236 | CS(=O)(=O)c1cc(CCC(=O)O)nc(-c2nc(=O)c3ccc(F)cc3s2)c1
39 | 131 | CCOC(=O)N1CCc2c(nc3ccccc3c2C)C(Cl)C1 (configuration not stated)
40 | 293 | COC(=O)c1ccc(-c2cc(C)c3[nH]c(=O)ccc3c2)cc1
41 | 86 | CCCCC[C@H]1CC[C@H](CCCCc2ccc(O)cc2)CC1
42 | 245 to 247 | COc1ccc(-c2c3c(cc4ccc5c(c24)OCO5)C(=O)NCC3)cc1
43 | 300 | CC1SC(=O)NN=C1c1ccc2c(c1)C(=NNC(N)=S)C(=O)N2 (configuration not stated)
44 | 210 to 215 | C=C(CN(C)C)C(O)c1ncc2c(c1O)COC2c1ccccc1 (configuration not stated)
45 | 198 to 200 | COc1cc(S(=O)(=O)C(c2cc(F)ccc2F)c2cc(N)ncc2Cl)ccc1Cl (configuration not stated)
46 | 132 to 133 | N#Cc1ccc(OCc2ccncc2)cc1F
47 | 131 to 133 | CCC(c1ccc(O)cc1)c1ccc(O)cc1
48 | 177 to 178 | C=C(C(=O)Nc1ccc(CCc2nnco2)cc1)c1cnn(C)c1-c1ccc(F)cc1
49 | 103 to 107 | CS(=O)(=O)c1ccc(-n2nc(C(F)(F)F)cc2-c2ccc(-c3cscn3)cc2)cc1Cl
50 | 116 to 117 | CC(C)Nc1ccc(-c2ncc(C(F)(F)F)cc2Cl)cc1N
51 | 141 to 142 | CC(=O)Oc1ccc2c(ccc3ccccc32)c1
52 | 88 to 89 | COc1ccc(-n2nc(CO)c3c2CCC3)cc1
53 | 258 to 260 | Cc1cc(C)c(Nc2nc(C)ncc2S(=O)(=O)c2ccc(C#N)cc2)c(C)c1
54 | 208 to 213 | CNC(C(=O)O)c1ccc(Cl)cc1 (configuration not stated)

Row | melting point [°C] | Compound
55 | 141 to 142 | CN(C)C(=O)COc1cc(Cl)ccc1C(=O)O
56 | 146 to 148 | CCCn1nc(-c2sc(C(=O)NC(C)C)nc2-c2ccccc2)ccc1=O
57 | 142 to 144 | CCOC(=O)C1=CC2(CCC1S(=O)(=O)Nc1ccc(F)cc1Cl)OCCCCO2 (configuration not stated)
58 | 125 to 129 | CCC1CC(=O)C2(C)CCC3c4ccc(OC)cc4CCC3C12 (configuration not stated)
59 | 131 to 132 | O=C(N=C1CCCN1Cc1ccccc1)Nc1ccc(F)c(Cl)c1
60 | 177 to 180 | COCC(=O)Nc1ccc2ncnc(Nc3cccc(Cl)c3)c2c1
61 | 83 to 85 | NCc1ccc2c(c1)N(C1CCN(CCc3ccc(F)cc3)CC1)CC2
62 | 104 to 107 | COc1ccc2c(c1)c(Cc1cc(=O)n(C3CCCCC3)[nH]1)c(C)n2C(=O)c1ccc(Cl)c(Cl)c1
63 | 148 | CN(c1ccccc1-c1ccc2cnc(Nc3ccc(N4CCN(CC(N)=O)CC4)c(F)c3)nn12)S(C)(=O)=O
64 | 154 to 155 | COc1ccc(C2(C#N)CCC(=O)C(C(N)=O)C2)cc1OCCl (configuration not stated)
65 | 123 to 125 | CC(C)c1ccc(N(Cc2ccc(N(C)C)cc2)C(=S)C2CCCc3ccccc32)cc1 (configuration not stated)
66 | 174 to 176 | Clc1ccc(-c2cc(C3CCNCC3)n[nH]2)cc1
67 | 131 to 132 | CCC1c2cccn2-c2ccc(F)cc2N1C(=O)c1ccc(OC)cc1OC (configuration not stated)
68 | 121 | CCOC(=O)c1oc(-c2ccccc2)cc(=O)c1Cl
69 | 206 to 207 | O=C(O)c1nc2ccc(O)cc2[nH]1
70 | 166 to 170 | N#Cc1ccc2c(c1)Sc1ccccc1CC2=O
71 | 106 to 108 | CNc1ccc(Cl)cc1C(O)c1ccccc1Cl (configuration not stated)
72 | 230 to 232 | O=C(NC1CCN(Cc2ccccc2)CC1)c1ccc(Nc2c(C(=O)NC3CCN(Cc4ccccc4)CC3)cnc3cc(Cl)ccc23)cc1
